{"source": "patent US8710099B2", "about": "“Treatment of cancer using the sodium salt of a benzoic acid derivative” (New York University, priority 2009, dated 2014)", "key": {"[1]": {"test_system": "Human M21 melanoma cells", "test": "M21 melanoma cell proliferation, MTT assay", "format": "cell-based", "description": "Human M21 melanoma cells were washed and re-suspended in proliferation buffer containing 1.0% serum in the presence or absence of 100 ng/mL of C-45-Na, or C-45-HCl. DMSO control samples lacking C-45-Na or C-45-HCl were also prepared. Treated cells (1,500/well) were added to individual wells of a cell culture microtiter plate and allowed to grow over a time course of 3 days. Proliferation was monitored using a commercially available MTT assay (Millipore). Data points represent the mean±standard deviations from triplicate wells.\nHuman M21 melanoma cells were washed and re-suspended in proliferation buffer containing 1.0% serum in the presence or absence of 100 ng/mL of C-45-Na, or C-45-HCl. Treated cells (1,500/well) were added to individual wells of a cell culture microtiter plate and allowed to grow over a time course of 3 days. Proliferation was monitored using a commercially available MTT assay (Millipore). Data points represent the mean±standard deviations from triplicate wells.\nHuman M21 melanoma cells were washed and re-suspended in proliferation buffer containing 0.5% serum in the presence of 50 μg/mL of C-45-Na, C-45-K, or C-45-HCl. DMSO control samples lacking C-45-Na, C-45-K, and C-45-HCl were also prepared. Treated cells (1,500/well) were added to individual wells of a cell culture microtiter plate and allowed to grow over a time course of 3 days. Proliferation was monitored using a commercially available MTT assay (Millipore). Data points represent the mean±standard deviations from triplicate wells.\n(§1) In Example 6, the differential effects of C-45-Na on normal human melanocytes, normal human keratinocytes and human melanoma cells were examined Normal human melanocytes, keratinocytes and M21 melanoma cells were allowed to proliferate in the presence or absence of C-45-Na (50 μg/mL) for 24 hours. Proliferation was monitored using a commercially available MTT assay (Millipore)."}, "[2]": {"test_system": "C8161 human melanoma cells", "test": "C8161 melanoma cell proliferation, MTT assay", "format": "cell-based", "conditions": "100 μg/mL, 0.5% serum, 3 days; FIG. 13A", "description": "(§2) C8161 and A375 human melanoma cells were washed and re-suspended in proliferation buffer containing 0.5% serum in the presence of 100 μg/mL of C-45-Na or C-45-HCl. DMSO control samples lacking C-45-Na and C-45-HCl were also prepared. Treated cells (1,500/well) were added to individual wells of a cell culture microtiter plate and allowed to grow over a time course of 3 days. Proliferation was monitored using a commercially available MTT assay (Millipore). Data points represent the mean±standard deviations from triplicate wells."}, "[3]": {"test_system": "A375 human melanoma cells", "test": "A375 melanoma cell proliferation, MTT assay", "format": "cell-based", "conditions": "100 μg/mL, 0.5% serum, 3 days; FIG. 13B", "description": "as §2"}, "[4]": {"test_system": "MDA-MB 231 human breast carcinoma cells", "test": "MDA-MB 231 breast carcinoma proliferation, MTT assay", "format": "cell-based", "conditions": "100 μg/mL, 0.5% serum, 3 days; FIG. 14A", "description": "MDA-MB 231 human breast carcinoma cells were washed and re-suspended in proliferation buffer containing 0.5% serum in the presence of 100 μg/mL of C-45-Na or C-45-HCl. DMSO control samples lacking C-45-Na and C-45-HCl were also prepared. Treated cells (1,500/well) were added to individual wells of a cell culture microtiter plate and allowed to grow over a time course of 3 days. Proliferation was monitored using a commercially available MTT assay (Millipore). Data points represent the mean±standard deviations from triplicate wells."}, "[5]": {"test_system": "Panc-1 human pancreatic carcinoma cells", "test": "Panc-1 pancreatic carcinoma proliferation, MTT assay", "format": "cell-based", "conditions": "4.7, 9.3, 17.3, 37.5, and 75 μg/mL, 3 days; FIG. 14B", "description": "Panc-1 human pancreatic carcinoma cells were allowed to proliferate over a 3-day time course in the presence or absence of a series of concentrations of C-45-Na (4.7, 9.3, 17.3, 37.5, and 75 μg/mL) of or C-45-HCl. DMSO control samples lacking C-45-Na and were also prepared. Treated cells (1,500/well) were added to individual wells of a cell culture microtiter plate and allowed to grow over a time course of 3 days. Proliferation was monitored using a commercially available MTT assay (Millipore). Data points represent the mean±standard deviations from triplicate wells."}, "[6]": {"test_system": "Human M21 melanoma cells", "test": "Melanoma cell morphology", "format": "cell-based", "conditions": "100 μg/mL, 24 hours; FIG. 11A", "description": "(§3) Human M21 melanoma cells or C8161 melanoma cells were incubated in the presence of 100 μg/mL of C-45-Na or C-45-HCl for 24 hours. DMSO control samples lacking C-45-Na and C-45-HCl were also prepared."}, "[7]": {"test_system": "C8161 melanoma cells", "test": "Melanoma cell morphology", "format": "cell-based, human", "conditions": "100 μg/mL, 24 hours; FIG. 11B", "description": "as §3"}, "[8]": {"test_system": "Normal human melanocytes", "test": "Normal melanocyte proliferation, MTT assay", "format": "cell-based", "conditions": "50 μg/mL, 24 hours; FIG. 12B", "description": "as §1"}, "[9]": {"test_system": "normal human keratinocytes", "test": "Normal keratinocyte proliferation, MTT assay", "format": "cell-based", "conditions": "50 μg/mL, 24 hours; FIG. 12C", "description": "as §1"}, "[10]": {"test_system": "M21 melanoma cells", "test": "M21 melanoma tumor growth in nude mice", "format": "in vivo", "description": "Briefly, M21 melanoma cells (4.0×10^6) were injected subcutaneously in nude mice. Following establishment of palpable tumors (4 days), mice were either left untreated or treated daily by i.p injection with DMSO (50 μl/day), or with C-45-Na (50 μl/day) or C-45-HCl (50 μl/day) at a concentration range of 1-100 ug/day. Tumor size was monitored by caliper measurements and tumor volumes were estimated using the formula (L^2×W/2) where “L” represents length, and “W” represents width.\nThe effects of C45-Na on M21 melanoma tumor growth in vivo were studied. Briefly, M21 melanoma cells (4.0×10^6) were injected subcutaneously in nude mice. Following establishment of palpable tumors (4 days), mice were either left untreated or treated daily by i.p injection with DMSO (50 μl/day), or with C-45-Na concentrations of 0.1, 0.5, or 1.0 μg/day. Tumor size was monitored by caliper measurements and tumor volumes were estimated using the formula (L^2×W/2) where “L” represents length, and “W” represents width.\nIn experiment 11, an activity comparison between C-45-Na (1.0 μg) and C45-HCl (1.0 μg) on the in vivo growth of M21 tumors was examined following daily treatment after 21 days. Tumor size was monitored by caliper measurements and tumor volumes were estimated using the formula (L^2×W/2) where “L” represents length, and “W” represents width."}}, "data": [{"smiles": "C=CCNc1ccc(C(=O)[O-])cc1.[Na+]", "note": "[C-45-Na, Sodium 4-allylaminobenzoate]", "values": [{"measurement": "selectivity, tumor cells versus normal human cells", "setting": "[1]; 50 μg/mL, 24 hours, M21 vs melanocytes and keratinocytes", "value": "selective for tumor cell proliferation rather than normal human cells"}, {"measurement": "M21 tumor cell proliferation", "setting": "[1]; Experiment 1: 100 ng/mL, 1.0% serum, 3 days, FIG. 6", "value": "very potent anti-proliferative activity"}, {"measurement": "M21 tumor cell proliferation", "setting": "[1]; Experiment 2: 100 ng/mL, 1.0% serum, 3 days, FIG. 7", "value": "very potent anti-proliferative activity"}, {"measurement": "M21 tumor cell proliferation", "setting": "[1]; Experiment 3: 50 μg/mL, 0.5% serum, 3 days, FIG. 15", "value": "very potent anti-proliferative activity"}, {"measurement": "M21 tumor cell proliferation", "setting": "[1]; Experiment 8: 50 μg/mL, 24 hours, FIG. 12A", "value": "very potent anti-proliferative activity"}, {"measurement": "C8161 tumor cell proliferation", "setting": "[2]", "value": "very potent anti-proliferative activity"}, {"measurement": "A375 tumor cell proliferation", "setting": "[3]", "value": "very potent anti-proliferative activity"}, {"measurement": "MDA-MB 231 cell proliferation", "setting": "[4]", "value": "very potent anti-proliferative activity"}, {"measurement": "panc-1 cell proliferation", "setting": "[5]", "value": "very potent anti-proliferative activity"}, {"measurement": "cell morphology, M21", "setting": "[6]", "value": "significant cell rounding"}, {"measurement": "cell morphology, C8161", "setting": "[7]", "value": "significant cell rounding"}, {"measurement": "effect on proliferation of normal human melanocytes", "setting": "[8]", "value": "very little effect"}, {"measurement": "effect on proliferation of normal human keratinocytes", "setting": "[9]", "value": "very little effect"}, {"measurement": "inhibition of M21 melanoma tumor growth", "setting": "[10]; Experiment 9: daily i.p., 1.0 μg/day", "value": "Significant inhibition"}, {"measurement": "inhibition of tumor growth", "setting": "[10]; Experiment 10: daily i.p., 0.1, 0.5, or 1.0 μg/day, days 8, 14, and 21 (P<0.05), FIG. 16", "value": "significant inhibition of tumor growth"}, {"measurement": "inhibition of tumor growth", "setting": "[10]; Experiment 11: 1.0 μg daily, day 21 (P<0.05), FIG. 17", "value": "significant inhibition of tumor growth"}]}]}
